Holding throughout (assay type): cell-based
Conditions in all cases: 72 hours treatment, cell survival by CellTiter-Glo, 2% fetal bovine serum

One experiment concerns A549 cells. As to the kind of experiment: Cell viability (CellTiter-Glo ATP content) in A549 cells. On the procedure:
(§1) Logarithmically growing A549, LOX and MelJuSo cells (ATCC) were plated in antibiotic-free RPMI medium (Coming) supplemented with 2% fetal bovine serum (Gemini Bio-products) at a density of 5,000 cells per well in clear-bottom 96-well plates. The next day cells were treated (triplicates) with increasing doses of a compound of the present disclosure (dissolved in DMSO) and DMSO vehicle controls (final DMSO concentration of 0.5%) for 72 hours and subsequently assessed for cell viability by measuring ATP content with CellTiter-Glo Luminescent Cell Viability Assay (Promega). Signal intensity was measured on a Glomax™ 96 Microplate Luminometer (Promega) and percent cell survival was calculated based on the reading of vehicle control cells set as 100%.

The test system of another experiment is LOX cells. The experiment is described as follows: Cell viability (CellTiter-Glo ATP content) in LOX cells. On the procedure:
as §1

The test system of a further experiment is MelJuSo cells. The experiment is described as follows: Cell viability (CellTiter-Glo ATP content) in MelJuSo cells. On the procedure: as §1

A value given as a limit tells only on which side of the number the result lay.

As for `CCCCC1C(c2ccc(F)cc2)=NN(c2ccccc2)C1(C)C(=O)NCc1cccc(OC)c1OC` (stereo not drawn) [Compound 45, 4-butyl-N-(2,3-dimethoxybenzyl)-3-(4-fluorophenyl)-5-methyl-1-phenyl-4,5-dihydro-1H-pyrazole-5-carboxamide], the IC50 in the experiment with A549 cells (Homo sapiens, A549, 72 h) is above 2 µM; with LOX cells (LOX, 72 h), above 2 µM; in the experiment with MelJuSo cells (Homo sapiens, MEL-JUSO), above 2 µM.

As for `CCCCC1C(c2ccc(F)cc2)=NN(c2ccccc2)C1(C)C(=O)NCc1ccc(OC)cc1OC` (stereo not drawn) [Compound 46, 4-butyl-N-(2,4-dimethoxybenzyl)-3-(4-fluorophenyl)-5-methyl-1-phenyl-4,5-dihydro-1H-pyrazole-5-carboxamide], the concentration for half-maximal inhibition (IC50) in the experiment with A549 cells (Homo sapiens, A549, 72 h) was above 2 µM; with LOX cells (LOX, 72 h), above 2 µM; in the experiment on MelJuSo cells (Homo sapiens, MEL-JUSO), above 2 µM.

On to `CCCCC1C(c2ccc(F)cc2)=NN(c2ccccc2)C1(C)C(=O)N(C)Cc1ccc(OC)c(OC)c1` (stereo not drawn) [Compound 47, 4-butyl-N-(3,4-dimethoxybenzyl)-3-(4-fluorophenyl)-N,5-dimethyl-1-phenyl-4,5-dihydro-1H-pyrazole-5-carboxamide], for which the IC50 with A549 cells (Homo sapiens, A549, 72 h) is above 2 µM; in the experiment with LOX cells (LOX, 72 h) it was above 2 µM; with MelJuSo cells (Homo sapiens, MEL-JUSO) it was above 2 µM.

With `CCCCC1C(c2ccc(F)cc2)=NN(c2ccccc2)C1(C)C(=O)NCc1ccc(N(C)C)cc1` (stereo not drawn) [Compound 48, 4-butyl-N-(4-(dimethylamino)benzyl)-3-(4-fluorophenyl)-5-methyl-1-phenyl-4,5-dihydro-1H-pyrazole-5-carboxamide], the IC50 in the experiment with A549 cells (Homo sapiens, A549, 72 h) was above 2 µM; in the experiment on LOX cells (LOX, 72 h) it was above 2 µM; with MelJuSo cells (Homo sapiens, MEL-JUSO), above 2 µM.

For the molecule `CCCCC1C(c2ccc(F)cc2)=NN(c2ccccc2)C1(C)C(=O)NCCCN(C)C` (stereo not drawn) [Compound 49, 4-butyl-N-(3-(dimethylamino)propyl)-3-(4-fluorophenyl)-5-methyl-1-phenyl-4,5-dihydro-1H-pyrazole-5-carboxamide], the IC50 in the experiment with A549 cells (Homo sapiens, A549, 72 h) is above 2 µM; in the experiment on LOX cells (LOX, 72 h), above 2 µM; in the experiment with MelJuSo cells (Homo sapiens, MEL-JUSO), above 2 µM.

For `CCCCC1C(c2ccc(F)cc2)=NN(c2ccccc2)C1(C)C(=O)NCC(C)(C)CN(C)C` (stereo not drawn) [Compound 50, 4-butyl-N-(3-(dimethylamino)-2,2-dimethylpropyl)-3-(4-fluorophenyl)-5-methyl-1-phenyl-4,5-dihydro-1H-pyrazole-5-carboxamide], the half-inhibitory concentration (IC50) with A549 cells (Homo sapiens, A549, 72 h) is above 2 µM; in the experiment on LOX cells (LOX, 72 h), above 2 µM; in the experiment with MelJuSo cells (Homo sapiens, MEL-JUSO), above 2 µM.

In the case of `CCCCC1C(c2ccc(F)cc2)=NN(c2ccccc2)C1(C)C(=O)NCC1CCCCC1` (stereo not drawn) [Compound 51, 4-butyl-N-(cyclohexylmethyl)-3-(4-fluorophenyl)-5-methyl-1-phenyl-4,5-dihydro-1H-pyrazole-5-carboxamide], the IC50 in the experiment on A549 cells (Homo sapiens, A549, 72 h) is above 2 µM; in the experiment with LOX cells (LOX, 72 h), above 2 µM; in the experiment on MelJuSo cells (Homo sapiens, MEL-JUSO), above 2 µM.

On to `CCCCC1C(c2ccc(F)cc2)=NN(c2ccccc2)C1(C)C(=O)N(C)Cc1cc(OC)cc(OC)c1` (stereo not drawn) [Compound 52, 4-butyl-N-(3,5-dimethoxybenzyl)-3-(4-fluorophenyl)-N,5-dimethyl-1-phenyl-4,5-dihydro-1H-pyrazole-5-carboxamide], for which the IC50 in the experiment with A549 cells (Homo sapiens, A549, 72 h) was above 2 µM; in the experiment with LOX cells (LOX, 72 h), above 2 µM; in the experiment with MelJuSo cells (Homo sapiens, MEL-JUSO), above 2 µM.

Turning to `CCCCC1C(c2ccc(Cl)cc2F)=NN(c2ccccc2)C1(C)C(=O)NCCCC(C)(C)CO` (stereo not drawn) [Compound 53, 4-butyl-3-(4-chloro-2-fluorophenyl)-N-(5-hydroxy-4,4-dimethylpentyl)-5-methyl-1-phenyl-4,5-dihydro-1H-pyrazole-5-carboxamide], the IC50 was above 2 µM in the experiment with A549 cells (Homo sapiens, A549, 72 h); above 2 µM with LOX cells (LOX, 72 h); above 2 µM with MelJuSo cells (Homo sapiens, MEL-JUSO).

In the case of `CCCCC1C(c2ccc(Cl)cc2F)=NN(c2ccccc2)C1(C)C(=O)NCCOC` (stereo not drawn) [Compound 54, 4-butyl-3-(4-chloro-2-fluorophenyl)-N-(2-methoxyethyl)-5-methyl-1-phenyl-4,5-dihydro-1H-pyrazole-5-carboxamide], the IC50 with A549 cells (Homo sapiens, A549, 72 h) was above 2 µM; in the experiment on LOX cells (LOX, 72 h), above 2 µM; in the experiment on MelJuSo cells (Homo sapiens, MEL-JUSO), above 2 µM.

On to `CCCCC1C(c2ccc(F)cc2)=NN(c2cccc(C)c2)C1(C)C(=O)NCCOC` (stereo not drawn) [Compound 55, 4-butyl-3-(4-fluorophenyl)-N-(2-methoxyethyl)-5-methyl-1-m-tolyl-4,5-dihydro-1H-pyrazole-5-carboxamide], for which the IC50 is 0.25 to 0.5 µM in the experiment with A549 cells (Homo sapiens, A549, 72 h); below 0.25 µM in the experiment on LOX cells (LOX, 72 h); below 0.25 µM with MelJuSo cells (Homo sapiens, MEL-JUSO).

Consider `CCCCC1C(c2ccc(F)cc2F)=NN(c2ccccc2)C1(C)C(=O)NCCCC(C)(C)CO` (stereo not drawn) [Compound 56, 4-butyl-3-(2,4-difluorophenyl)-N-(5-hydroxy-4,4-dimethylpentyl)-5-methyl-1-phenyl-4,5-dihydro-1H-pyrazole-5-carboxamide], for which the concentration for half-maximal inhibition (IC50) is above 2 µM in the experiment with A549 cells (Homo sapiens, A549, 72 h); 1 to 2 µM with LOX cells (LOX, 72 h); 0.5 to 1 µM in the experiment with MelJuSo cells (Homo sapiens, MEL-JUSO).

With `CCCCC1C(c2ccc(F)cc2F)=NN(c2ccccc2)C1(C)C(=O)NCCOC` (stereo not drawn) [Compound 57, 4-butyl-3-(2,4-difluorophenyl)-N-(2-methoxyethyl)-5-methyl-1-phenyl-4,5-dihydro-1H-pyrazole-5-carboxamide], the IC50 in the experiment on A549 cells (Homo sapiens, A549, 72 h) was in the range of 1 to 2 µM; in the experiment on LOX cells (LOX, 72 h), 0.5 to 1 µM; with MelJuSo cells (Homo sapiens, MEL-JUSO) it was 0.5 to 1 µM.

As for `CCCCC1C(c2ccc(Cl)cc2)=NN(c2ccccc2)C1(C)C(=O)NCCOC` (stereo not drawn) [Compound 58, 4-butyl-3-(4-chlorophenyl)-N-(2-methoxyethyl)-5-methyl-1-phenyl-4,5-dihydro-1H-pyrazole-5-carboxamide], the IC50 was above 2 µM with A549 cells (Homo sapiens, A549, 72 h); 1 to 2 µM in the experiment on LOX cells (LOX, 72 h); 1 to 2 µM in the experiment on MelJuSo cells (Homo sapiens, MEL-JUSO).

`CCCCC1C(c2ccc(F)cc2)=NN(c2ccc(C)cc2)C1(C)C(=O)NCCOC` (stereo not drawn) [Compound 59, 4-butyl-3-(4-fluorophenyl)-N-(2-methoxyethyl)-5-methyl-1-p-tolyl-4,5-dihydro-1H-pyrazole-5-carboxamide]: the half-maximal inhibitory concentration (IC50) in the experiment with A549 cells (Homo sapiens, A549, 72 h) is 0.25 to 0.5 µM; in the experiment on LOX cells (LOX, 72 h) it was below 0.25 µM; in the experiment with MelJuSo cells (Homo sapiens, MEL-JUSO), below 0.25 µM.

With `COCCNC(=O)C1(C)C(c2cccs2)C(c2ccc(F)cc2)=NN1c1ccc(F)cc1F` (stereo not drawn) [Compound 60, 1-(2,4-difluorophenyl)-3-(4-fluorophenyl)-N-(2-methoxyethyl)-5-methyl-4-(thiophen-2-yl)-4,5-dihydro-1H-pyrazole-5-carboxamide], the concentration for half-maximal inhibition (IC50) is 0.25 to 0.5 µM with A549 cells (Homo sapiens, A549, 72 h); below 0.25 µM with LOX cells (LOX, 72 h); below 0.25 µM in the experiment on MelJuSo cells (Homo sapiens, MEL-JUSO).

`CCCCC1C(c2ccc(F)cc2)=NN(c2cccc(C)c2)C1(C)C(=O)NCCCC(C)(C)CO` (stereo not drawn) [Compound 61, 4-butyl-3-(4-fluorophenyl)-N-(5-hydroxy-4,4-dimethylpentyl)-5-methyl-1-m-tolyl-4,5-dihydro-1H-pyrazole-5-carboxamide]: the IC50 was above 2 µM in the experiment on A549 cells (Homo sapiens, A549, 72 h); 1 to 2 µM in the experiment on LOX cells (LOX, 72 h); 0.5 to 1 µM in the experiment on MelJuSo cells (Homo sapiens, MEL-JUSO).

For the molecule `CCCCC1C(c2ccc(F)cc2)=NN(c2ccc(C)cc2)C1(C)C(=O)NCCCC(C)(C)CO` (stereo not drawn) [Compound 62, 4-butyl-3-(4-fluorophenyl)-N-(5-hydroxy-4,4-dimethylpentyl)-5-methyl-1-p-tolyl-4,5-dihydro-1H-pyrazole-5-carboxamide], the half-inhibitory concentration (IC50) was above 2 µM in the experiment on A549 cells, 0.5 to 1 µM in the experiment on LOX cells and 0.25 to 0.5 µM in the experiment with MelJuSo cells.

On to `COCCNC(=O)C1(C)C(c2cccs2)C(c2ccc(F)cc2)=NN1c1ccc(C)cc1` (stereo not drawn) [Compound 63, 3-(4-fluorophenyl)-N-(2-methoxyethyl)-5-methyl-4-(thiophen-2-yl)-1-p-tolyl-4,5-dihydro-1H-pyrazole-5-carboxamide], for which the IC50 in the experiment on A549 cells (Homo sapiens, A549, 72 h) is 0.25 to 0.5 µM; with LOX cells (LOX, 72 h), below 0.25 µM; in the experiment with MelJuSo cells (Homo sapiens, MEL-JUSO) it was below 0.25 µM.

Turning to `CCCCC1C(c2ccc(F)cc2)=NN(c2ccc(Cl)cc2F)C1(C)C(=O)NCCOC` (stereo not drawn) [Compound 64, 4-butyl-1-(4-chloro-2-fluorophenyl)-3-(4-fluorophenyl)-N-(2-methoxyethyl)-5-methyl-4,5-dihydro-1H-pyrazole-5-carboxamide], the IC50 in the experiment on A549 cells (Homo sapiens, A549, 72 h) is 0.25 to 0.5 µM; in the experiment with LOX cells (LOX, 72 h) it was below 0.25 µM; with MelJuSo cells (Homo sapiens, MEL-JUSO), below 0.25 µM.

For `CCCCC1C(c2ccc(F)cc2)=NN(c2ccccc2)C1(C)C(=O)NCCCN1CCOCC1` (stereo not drawn) [Compound 65, 4-butyl-3-(4-fluorophenyl)-5-methyl-N-(3-morpholinopropyl)-1-phenyl-4,5-dihydro-1H-pyrazole-5-carboxamide], the 50% inhibitory concentration (IC50) with A549 cells (Homo sapiens, A549, 72 h) was above 2 µM; in the experiment with LOX cells (LOX, 72 h) it was above 2 µM; in the experiment on MelJuSo cells (Homo sapiens, MEL-JUSO), above 2 µM.

In the case of `CCCCC1C(c2ccc(F)cc2)=NN(c2ccccc2)C1(C)C(=O)NCc1ccc(O)c(OC)c1` (stereo not drawn) [Compound 66, 4-butyl-3-(4-fluorophenyl)-N-(4-hydroxy-3-methoxybenzyl)-5-methyl-1-phenyl-4,5-dihydro-1H-pyrazole-5-carboxamide], the IC50 in the experiment with A549 cells (Homo sapiens, A549, 72 h) is above 2 µM; in the experiment with LOX cells (LOX, 72 h), above 2 µM; in the experiment with MelJuSo cells (Homo sapiens, MEL-JUSO), above 2 µM.

For the molecule `CCCCC1C(c2ccc(F)cc2)=NN(c2ccccc2)C1(C)C(=O)NCc1cccs1` (stereo not drawn) [Compound 67, 4-butyl-3-(4-fluorophenyl)-5-methyl-1-phenyl-N-(thiophen-2-ylmethyl)-4,5-dihydro-1H-pyrazole-5-carboxamide], the concentration for half-maximal inhibition (IC50) with A549 cells (Homo sapiens, A549, 72 h) was above 2 µM; in the experiment with LOX cells (LOX, 72 h) it was above 2 µM; in the experiment with MelJuSo cells (Homo sapiens, MEL-JUSO), above 2 µM.

As to `CCCCC1C(c2ccc(F)cc2)=NN(c2ccccc2)C1(C)C(=O)NCC1CCCCO1` (stereo not drawn) [Compound 68, 4-butyl-3-(4-fluorophenyl)-5-methyl-1-phenyl-N-((tetrahydro-2H-pyran-2-yl)methyl)-4,5-dihydro-1H-pyrazole-5-carboxamide], the IC50 in the experiment on A549 cells (Homo sapiens, A549, 72 h) is above 2 µM; in the experiment with LOX cells (LOX, 72 h), 1 to 2 µM; in the experiment on MelJuSo cells (Homo sapiens, MEL-JUSO) it was 0.5 to 1 µM.

The values are drawn from US12227482B2, “Compounds and compositions for the treatment of cancer” (The Regents of the University of California, priority 2016, dated 2025).
